Measurements as given in patent US20240383905A1, “FGFR INHIBITORS AND METHODS OF USE THEREOF” (3H PHARMACEUTICALS CO., LTD., priority 2021, published 2024).

Assays:
FGFR3 = molecular target: T1, FGFR3 (Homo sapiens, UniProt P22607); assay: FGFR3 Biochemical Caliper Assay (KinEASE-TK kit); details: ratio FGFR3/FGFR2 of the biochemical assay
T1 construct: purchased Carna 08-135
Summary of the method: (§1)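 KinEASE-TK HTRF readout: enzyme at 0.2 nM (FGFR1, FGFR3) preincubated 10 min at RT with 10-point 3-fold compound dilutions before TK-substrate/ATP start.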

FGFR2 = molecular target: T2, FGFR2 (Homo sapiens, UniProt P21802); assay: FGFR2 Biochemical Caliper Assay (KinEASE-TK kit); details: 0.07 nM FGFR2; compound incubated with protein 10 min, reaction 45 min at RT; read-out: FGFR2 Cliper IC50
T2 construct: purchased Carna 08-134

SNU16 cells = assay: SNU16 Cancer Cell Line Proliferation Assay (CellTiter-Glo); format: cell-based; details: Homo sapiens, SNU-16, 72 h
Summary of the method: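 Luminescent ATP read-out after 72 h at 37 °C gave IC50 values; compounds tested as 9 three-fold serial dilutions on 5000 SNU16 cells per well, with DMSO as control.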

FGFR1 = molecular target: T3, FGFR1 (Homo sapiens, UniProt P11362); assay: FGFR1 Biochemical Caliper Assay (KinEASE-TK kit); details: ratio FGFR1/FGFR2 of the biochemical assay
T3 construct: purchased Carna 08-133
Summary of the method: as §1

T1 sequence (P22607 23-806): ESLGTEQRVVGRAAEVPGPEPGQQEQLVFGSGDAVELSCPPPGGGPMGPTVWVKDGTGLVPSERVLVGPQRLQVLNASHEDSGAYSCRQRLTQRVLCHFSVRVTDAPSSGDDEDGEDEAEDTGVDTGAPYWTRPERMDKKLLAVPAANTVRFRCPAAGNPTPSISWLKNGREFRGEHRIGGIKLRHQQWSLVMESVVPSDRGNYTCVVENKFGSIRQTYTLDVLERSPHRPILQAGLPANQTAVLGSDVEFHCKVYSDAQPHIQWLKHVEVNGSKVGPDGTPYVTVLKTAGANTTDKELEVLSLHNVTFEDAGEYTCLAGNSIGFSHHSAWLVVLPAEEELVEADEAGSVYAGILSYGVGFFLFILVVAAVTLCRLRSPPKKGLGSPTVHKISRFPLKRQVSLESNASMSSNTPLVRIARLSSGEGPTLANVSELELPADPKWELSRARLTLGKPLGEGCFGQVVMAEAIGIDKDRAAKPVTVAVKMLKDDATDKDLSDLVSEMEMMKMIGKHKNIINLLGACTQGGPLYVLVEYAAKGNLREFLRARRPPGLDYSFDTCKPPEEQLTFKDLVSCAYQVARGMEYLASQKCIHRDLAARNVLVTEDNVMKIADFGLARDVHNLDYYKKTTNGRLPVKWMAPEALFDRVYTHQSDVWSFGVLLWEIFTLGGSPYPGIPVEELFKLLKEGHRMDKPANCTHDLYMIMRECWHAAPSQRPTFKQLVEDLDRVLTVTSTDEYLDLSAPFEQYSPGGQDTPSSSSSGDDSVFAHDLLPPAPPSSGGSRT
T3 sequence (P11362 22-822): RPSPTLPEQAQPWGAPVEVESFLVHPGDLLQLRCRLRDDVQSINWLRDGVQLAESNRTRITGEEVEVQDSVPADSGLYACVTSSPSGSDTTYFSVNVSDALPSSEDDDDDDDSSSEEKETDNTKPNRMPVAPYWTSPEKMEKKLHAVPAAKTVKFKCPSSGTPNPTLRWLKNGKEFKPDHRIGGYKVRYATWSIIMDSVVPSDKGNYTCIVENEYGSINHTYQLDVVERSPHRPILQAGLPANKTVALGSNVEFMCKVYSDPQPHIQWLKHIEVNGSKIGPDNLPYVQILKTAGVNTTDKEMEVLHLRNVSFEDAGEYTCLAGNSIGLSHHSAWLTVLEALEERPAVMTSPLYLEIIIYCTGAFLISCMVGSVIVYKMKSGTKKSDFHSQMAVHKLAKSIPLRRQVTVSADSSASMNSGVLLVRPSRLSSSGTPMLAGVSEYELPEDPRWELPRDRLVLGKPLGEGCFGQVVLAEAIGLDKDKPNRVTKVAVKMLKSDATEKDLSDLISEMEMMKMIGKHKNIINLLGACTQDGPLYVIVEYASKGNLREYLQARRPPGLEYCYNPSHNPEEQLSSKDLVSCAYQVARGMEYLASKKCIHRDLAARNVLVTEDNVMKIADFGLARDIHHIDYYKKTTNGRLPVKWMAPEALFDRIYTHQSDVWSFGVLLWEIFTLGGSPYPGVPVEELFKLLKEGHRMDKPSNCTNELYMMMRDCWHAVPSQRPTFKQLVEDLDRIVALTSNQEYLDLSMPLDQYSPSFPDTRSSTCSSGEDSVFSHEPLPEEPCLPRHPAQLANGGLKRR
T2 sequence (P21802 22-821): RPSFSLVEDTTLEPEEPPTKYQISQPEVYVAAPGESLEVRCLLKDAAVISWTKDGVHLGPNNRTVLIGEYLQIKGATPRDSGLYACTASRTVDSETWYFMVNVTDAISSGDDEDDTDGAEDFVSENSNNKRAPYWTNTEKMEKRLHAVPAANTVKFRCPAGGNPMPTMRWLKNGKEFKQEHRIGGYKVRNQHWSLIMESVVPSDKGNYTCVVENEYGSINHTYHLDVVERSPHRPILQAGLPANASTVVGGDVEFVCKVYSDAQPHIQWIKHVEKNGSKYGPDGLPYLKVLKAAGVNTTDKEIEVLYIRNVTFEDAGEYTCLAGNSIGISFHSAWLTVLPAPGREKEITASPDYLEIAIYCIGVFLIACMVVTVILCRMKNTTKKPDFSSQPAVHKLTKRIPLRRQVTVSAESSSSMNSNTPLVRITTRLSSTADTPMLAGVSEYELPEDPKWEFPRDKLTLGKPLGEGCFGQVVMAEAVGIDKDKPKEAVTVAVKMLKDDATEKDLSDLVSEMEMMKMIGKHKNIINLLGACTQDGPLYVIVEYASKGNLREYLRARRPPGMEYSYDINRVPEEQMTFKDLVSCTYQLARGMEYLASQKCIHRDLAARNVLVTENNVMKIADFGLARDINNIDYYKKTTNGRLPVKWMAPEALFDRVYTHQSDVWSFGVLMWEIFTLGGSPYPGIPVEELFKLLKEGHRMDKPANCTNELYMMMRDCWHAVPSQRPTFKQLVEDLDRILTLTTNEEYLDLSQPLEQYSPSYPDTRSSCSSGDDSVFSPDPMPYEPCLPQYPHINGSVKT

Structure (SMILES)	IC50 (FGFR2)	IC50 (SNU16 cells)	Selectivity FGFR3/FGFR2 (FGFR3)	Selectivity FGFR1/FGFR2 (FGFR1)
C=CC(=O)Nc1ccc(-c2c(-c3ccc(C(=O)NC4CC4)c(OC)c3)c3c(N)ncc(C#N)c3n2C)c(F)c1 [Compound 157, 4-(2-(4-acrylamido-2-fluorophenyl)-4-amino-7-cyano-1-methyl-1H-pyrrolo[3,2-c]pyridin-3-yl)-N-cyclopropyl-2-methoxybenzamide]	< 5 nM	≤ 10 nM	B (Selectivity of FGFR3/FGFR2 less than 100 but greater than or equal to 25)	B (Selectivity of FGFR1/FGFR2 less than 300 but greater than or equal to 200)
C=CC(=O)Nc1ccc(-c2c(-c3ccc(C(=O)NC4CC4(F)F)c(OC)c3)c3c(N)ncc(C#N)c3n2C)cc1 (stereo not shown) [Compound 167, 4-(2-(4-acrylamidophenyl)-4-amino-7-cyano-1-methyl-1H-pyrrolo[3,2-c]pyridin-3-yl)-N-(2,2-difluorocyclopropyl)-2-methoxybenzamide]	< 5 nM	≤ 10 nM	B (Selectivity of FGFR3/FGFR2 less than 100 but greater than or equal to 25)	A (Selectivity of FGFR1/FGFR2 less than 500 but greater than or equal to 300)
C=CC(=O)Nc1ccc(-c2c(-c3ccc(C(=O)NC4(C)CC4)c(OC)c3)c3c(N)ncc(C#N)c3n2C)cc1 [Compound 169]	< 5 nM	≤ 10 nM	B (Selectivity of FGFR3/FGFR2 less than 100 but greater than or equal to 25)	A+ (Selectivity of FGFR1/FGFR2 greater or equal to 500)
C=CC(=O)Nc1ccc(-c2c(-c3ccc(C(=O)NCC4CC4)c(OC)c3)c3c(N)ncc(C#N)c3n2C)cc1 [Compound 170]	< 5 nM	≤ 10 nM	B (Selectivity of FGFR3/FGFR2 less than 100 but greater than or equal to 25)	A+ (Selectivity of FGFR1/FGFR2 greater or equal to 500)
C=C(F)C(=O)Nc1ccc(-c2c(-c3ccc(C(=O)NC4CC4)c(OC)c3)c3c(N)ncc(C#N)c3n2C)c(OC)c1 [Compound 171, 4-(4-amino-7-cyano-2-(4-(2-fluoroacrylamido)-2-methoxyphenyl)-1-methyl-1H-pyrrolo[3,2-c]pyridin-3-yl)-N-cyclopropyl-2-methoxybenzamide]	< 5 nM	≤ 10 nM	B (Selectivity of FGFR3/FGFR2 less than 100 but greater than or equal to 25)	C (Selectivity of FGFR1/FGFR2 less than 200 but greater than or equal to 100)
C=CC(=O)Nc1ccc(-c2c(-c3ccc(C(=O)NC4CC(F)(F)C4)c(OC)c3)c3c(N)ncc(C#N)c3n2C)cc1 [Compound 188, 4-(2-(4-acrylamidophenyl)-4-amino-7-cyano-1-methyl-1H-pyrrolo[3,2-c]pyridin-3-yl)-N-(3,3-difluorocyclobutyl)-2-methoxybenzamide]	< 5 nM	≤ 10 nM	B (Selectivity of FGFR3/FGFR2 less than 100 but greater than or equal to 25)	B (Selectivity of FGFR1/FGFR2 less than 300 but greater than or equal to 200)
C=CC(=O)Nc1ccc(-c2c(-c3ccc(C(=O)NCCF)c(OC)c3)c3c(N)ncc(C#N)c3n2C)cc1 [Compound 189, 4-(2-(4-acrylamidophenyl)-4-amino-7-cyano-1-methyl-1H-pyrrolo[3,2-c]pyridin-3-yl)-N-(2-fluoroethyl)-2-methoxybenzamide]	< 5 nM	≤ 10 nM	B (Selectivity of FGFR3/FGFR2 less than 100 but greater than or equal to 25)	B (Selectivity of FGFR1/FGFR2 less than 300 but greater than or equal to 200)
C=CC(=O)Nc1ccc(-c2c(-c3ccc(C(=O)NCC(F)F)c(OC)c3)c3c(N)ncc(C#N)c3n2C)cc1 [Compound 198, 4-(2-(4-acrylamidophenyl)-4-amino-7-cyano-1-methyl-1H-pyrrolo[3,2-c]pyridin-3-yl)-N-(2,2-difluoroethyl)-2-methoxybenzamide]	< 5 nM	≤ 10 nM	A+ (Selectivity of FGFR3/FGFR2 greater or equal to 150)	A (Selectivity of FGFR1/FGFR2 less than 500 but greater than or equal to 300)
C=CC(=O)Nc1ccc(-c2nn3ncnc(N)c3c2-c2ccc(OC3CCCCC3)cc2)cc1 [Compound 228, N-(4-(4-amino-5-(4-(cyclohexyloxy)phenyl)pyrazolo[5,1-f][1,2,4]triazin-6-yl)phenyl)acrylamide]	5 to 10 nM	≤ 10 nM	A+ (Selectivity of FGFR3/FGFR2 greater or equal to 150)	A+ (Selectivity of FGFR1/FGFR2 greater or equal to 500)

Second part, led by results:

IC50 (FGFR2)	IC50 (SNU16 cells)	Structure (SMILES)	Selectivity FGFR3/FGFR2 (FGFR3)	Selectivity FGFR1/FGFR2 (FGFR1)
< 5 nM	≤ 10 nM	C=CC(=O)Nc1ccc(-c2nn3ncnc(N)c3c2-c2ccc(C(=O)NC3(C)CC3)c(OC)c2)cc1 [Compound 162, 4-(6-(4-acrylamidophenyl)-4-aminopyrazolo[5,1-f] [1,2,4]triazin-5-yl)-2-methoxy-N-(1-methylcyclopropyl)benzamide]	A+ (Selectivity of FGFR3/FGFR2 greater or equal to 150)	A+ (Selectivity of FGFR1/FGFR2 greater or equal to 500)
< 5 nM	≤ 10 nM	C=C(F)C(=O)Nc1ccc(-c2nn3ncnc(N)c3c2-c2ccc(C(=O)NCC3CC3)c(OC)c2)cc1 [Compound 163]	A+ (Selectivity of FGFR3/FGFR2 greater or equal to 150)	A+ (Selectivity of FGFR1/FGFR2 greater or equal to 500)
< 5 nM	≤ 10 nM	C=CC(=O)Nc1ccc(-c2c(-c3ccc(C(=O)NC4CC(F)C4)c(OC)c3)c3c(N)ncc(C#N)c3n2C)cc1 (stereo not shown) [Compound 168, 4-(2-(4-acrylamidophenyl)-4-amino-7-cyano-1-methyl-1H-pyrrolo[3,2-c]pyridin-3-yl)-N-(3-fluorocyclobutyl)-2-methoxybenzamide]	A+ (Selectivity of FGFR3/FGFR2 greater or equal to 150)	A+ (Selectivity of FGFR1/FGFR2 greater or equal to 500)
< 5 nM	≤ 10 nM	C=CC(=O)Nc1ccc(-c2nn3ncnc(N)c3c2-c2ccc(C(=O)NC3CC(F)C3)c(OC)c2)cc1 (stereo not shown) [Compound 184, 4-(6-(4-acrylamidophenyl)-4-aminopyrazolo[5,1-f][1,2,4]triazin-5-yl)-N-(3-fluorocyclobutyl)-2-methoxybenzamide]	A+ (Selectivity of FGFR3/FGFR2 greater or equal to 150)	A (Selectivity of FGFR1/FGFR2 less than 500 but greater than or equal to 300)
5 to 10 nM	≤ 10 nM	C=CC(=O)Nc1ccc(-c2nn3ncnc(N)c3c2-c2ccc(C(=O)NCCF)c(OC)c2)cc1 [Compound 194, 4-(6-(4-acrylamidophenyl)-4-aminopyrazolo[5,1-f][1,2,4]triazin-5-yl)-N-(2-fluoroethyl)-2-methoxybenzamide]	A+ (Selectivity of FGFR3/FGFR2 greater or equal to 150)	B (Selectivity of FGFR1/FGFR2 less than 300 but greater than or equal to 200)
< 5 nM	≤ 10 nM	C=CC(=O)Nc1ccc(-c2nn3ncnc(N)c3c2-c2ccc(C(=O)NCC(F)F)c(OC)c2)cc1 [Compound 196, 4-(6-(4-acrylamidophenyl)-4-aminopyrazolo[5,1-f][1,2,4]triazin-5-yl)-N-(2,2-difluoroethyl)-2-methoxybenzamide]	A+ (Selectivity of FGFR3/FGFR2 greater or equal to 150)	A (Selectivity of FGFR1/FGFR2 less than 500 but greater than or equal to 300)
< 5 nM	≤ 10 nM	C=C(F)C(=O)Nc1ccc(-c2nn3ncnc(N)c3c2-c2ccc(C(=O)NC3CC3)c(OC)c2)c(Cl)c1 [Compound 199, 4-(4-amino-6-(2-chloro-4-(2-fluoroacrylamido)phe-nyl)pyrazolo[5,1-f][1,2,4]triazin-5-yl)-N-cyclopropyl-2-methoxybenzamide]	A+ (Selectivity of FGFR3/FGFR2 greater or equal to 150)	A+ (Selectivity of FGFR1/FGFR2 greater or equal to 500)
< 5 nM	≤ 10 nM	C=C(F)C(=O)Nc1ccc(-c2nn3ncnc(N)c3c2-c2ccc(C(=O)NCC3(F)CC3)c(OC)c2)cc1 [Compound 204, 4-(4-amino-6-(4-(2-fluoroacrylamido)phe-nyl)pyrazolo[5,1-f][1,2,4]triazin-5-yl)-N-((1-fluorocyclopropyl)methyl)-2-methoxybenzamide]	A (Selectivity of FGFR3/FGFR2 less than 150 but greater than or equal to 100)	A+ (Selectivity of FGFR1/FGFR2 greater or equal to 500)
< 5 nM	≤ 10 nM	C=CC(=O)Nc1ccc(-c2nn3ncnc(N)c3c2-c2ccc(Oc3nccc(C)n3)c(F)c2)cc1 [Compound 205, N-(4-(4-amino-5-(3-fluoro-4-((4-methylpyrimidin-2-yl)oxy)phenyl)pyrazolo [5,1-f][1,2,4]triazin-6-yl)phenyl)acrylamide]	B (Selectivity of FGFR3/FGFR2 less than 100 but greater than or equal to 25)	A+ (Selectivity of FGFR1/FGFR2 greater or equal to 500)
< 5 nM	≤ 10 nM	C=C(F)C(=O)Nc1ccc(-c2nn3ncnc(N)c3c2-c2ccc(C(=O)NC3CC(F)(F)C3)c(OC)c2)c(F)c1 [Compound 234]	A+ (Selectivity of FGFR3/FGFR2 greater or equal to 150)	A+ (Selectivity of FGFR1/FGFR2 greater or equal to 500)
